For the test, the system named is MDA-MB-468 breast. Briefly: NCI anticancer screen, dose series, 48 h.

This note sets out measurements from PubChem BioAssay (NCI).

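Protocol summary: plate cells (96-well), add compound at 5 concentrations, incubate 48 h, interpolate endpoints linearly. At the GI50, growth is halved. The concentration for full growth arrest is given as TGI.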

Regarding `COc1ccc(-c2[nH]c3ccccc3c2C=C(C#N)C#N)cc1`, the GI50 is 557 nM and the TGI was over 100000 nM.
Regarding `COc1cc(-c2nc(Nc3nc4ccccc4[nH]3)nc(N)c2C#N)cc(OC)c1OC`, the GI50 is 1390 nM and the TGI turned out to be 26600 nM.
Regarding `CCC(C)(C)C(=O)O[C@H]1C[C@@H](C)C=C2C=C[C@H](C)[C@H](CC[C@@H]3C[C@@H](O)CC(=O)O3)[C@H]21`, the GI50 was 1620 nM and the TGI is 6680 nM.
The like results for `COc1cc(C(=O)c2ccc3c(c2)OCO3)cc(OC)c1OC` were, in that order, 586 nM and 3320 nM.
For `Cn1nccc1Nc1nccc(-c2cc3c(s2)C(C)(C)N(CCN2CCOCC2)C3=O)n1` the same measures were 6100 nM and over 83500 nM.
For `C/C=C(\C)C(=O)N[C@H]1CC[C@]2(C)C3CC[C@@]4(C)C(CC[C@@H]4C(C)N(C)C)C3CCC2[C@H]1OC(C)=O` (stereo partly specified) the same measures were 1170 nM and 2630 nM.
Consider `COc1cc2nc(-c3cnc(N(C)C)nc3)nc(NC3CCN(Cc4ccccc4)CC3)c2cc1OC`, for which the GI50 was 1380 nM and the TGI is 2960 nM.
Turning to `CC1(C)CC[C@]23CC[C@]4(C)[C@H](CC[C@@H]5[C@@]6(C)CCCN(CO)C(C)(C)[C@@H]6CC[C@]54C)[C@H]2[C@H]1OC3`, the GI50 is 1810 nM and the TGI worked out at 4180 nM.
Take `C1=Cc2ccccc2Nc2ccccc21`: the GI50 is 4360 nM and the TGI stood at 33700 nM.
For `C[C@@H]1CN(C(=O)c2ccc(NC(=O)c3cc(O[C@H](C)c4c(Cl)ccc(F)c4Cl)c(N)nn3)cc2)C[C@H](C)N1` the same measures were 2510 nM and 9870 nM.
On to `Oc1ccc2cc(Br)ccc2c1-c1c(O)ccc2cc(Br)ccc12`, for which the GI50 was 3620 nM and the TGI is 11700 nM.
For `CC[C@@H](C(=O)[C@@H](C)[C@@H](O)[C@H](C)[C@@H]1O[C@@H]([C@@H](CC)C(=O)O)CC[C@@H]1C)C1O[C@]2(C=CC(=O)[C@]3(CC[C@@](C)([C@H]4CC[C@](O)(CC)[C@H](C)O4)O3)O2)[C@H](C)C[C@@H]1C` (stereo partly specified) the same measures were 85.7 nM and 1960 nM.
For the compound `Cc1nn(-c2nc3ccccc3s2)c(C)c1Oc1ccccc1O`, the GI50 is 1130 nM and the TGI came to 27400 nM.
For `Cn1cc(C2=C(c3cccc4ccccc34)C(=O)NC2=O)c2ccccc21` the same measures were 8240 nM and over 25000 nM.
For `CCN(CC)CCCC(C)Nc1cnc(C(=O)Nc2ccc(Cl)c3cccnc23)cn1` (stereo unspecified) the same measures were 1570 nM and 3490 nM.
For `CCOc1cccc(/C=N/NC(=O)c2ccc(Nc3ccnc(C(F)(F)F)c3)cc2)c1O` the same measures were 349 nM and 2960 nM.
With `COc1cccc(C2c3cc4c(cc3OC(C)(O)C2C)OCO4)c1O` (stereo unspecified), the GI50 is 4830 nM and the TGI worked out at 56600 nM.
As for `Cn1cc(-c2nc(-c3c[nH]c4ncccc34)cs2)c2cc(F)ccc21`, the GI50 was 69 nM and the TGI came to 725 nM.
